# Results as given in patent publication US20090252814A1, “USE OF XENON FOR ORGAN PROTECTION” (priority 2005, published 2009).
# How the values were obtained:
# [1] = in combination with oxygen; cited from earlier work
# [2] = tested on: HIF-1α; assay: HIF-1α expression in the kidney after exposure to xenon (western blot); assay type: in vivo, C57BL/6J mice; conditions: adult mice, 75% xenon 2 h by inhalation, kidneys harvested 0-24 h after
# Description: Studies were performed on adult 8- to 12-wk-old C57BL/6J mice (Jackson Labs, Bar Harbor, Me.) that were fed a standard laboratory diet. All procedures were approved by the Home Office.
# The mice were exposed to 75% xenon for two hours. The xenon gas was administered to the mice by inhalation. The kidneys of said mice were then harvested as described below between 0-24 hours after exposure to the xenon gas.
# Once sacrificed, the kidneys were harvested and frozen at −80° C. […] Protein concentration in the supernatant was determined by DC (detergent-compatible) protein assay (Bio-Rad, Herts, UK), based on the Lowry method. […]
# After washing in TBS-T the membrane was incubated with the appropriate goat-derived horseradish peroxidase-conjugated secondary antibody at room temperature for 1½ hours to detect the primary antibodies. The immunoreactive bands were visualised with the enhanced chemiluminescence system and detected on X-ray film. The results were quantified by densitometry as an x-fold increase relative to the control without xenon—the amount of protein applied was normalised by the densitometry of the tubulin (which was unaltered by the intervention itself). […]
# [3] = tested on: kidney; assay: Ischaemic-reperfusion renal injury with xenon preconditioning; assay type: in vivo, C57BL/6J mice
# Description: Studies were performed on 8- to 12-wk-old C57BL/6J mice (Jackson Labs, Bar Harbor, Me.) that were fed a standard laboratory diet. All procedures were approved by the Home Office.
# The groups of mice were treated as follows: • Naïve=no anaesthesia and no surgery of any kind was carried out on these mice; • Sham=anaesthesia and surgery was carried out on these mice but there was no clamping of the renal pedicle; • Control (or P20)=anaesthesia and surgery together with clamping of the renal pedicle was carried out on these mice but there was but no xenon preconditioning; • XPD group (or XePC24)=mice were exposed to 75% xenon for two hours (XPD=preconditioned with xenon). The xenon gas was administered to the mice by inhalation. Twenty-four hours after this preconditioning the mice then underwent anaesthesia and surgery together with clamping of the renal pedicle; and • Xe=mice were exposed to 75% xenon for two hours but no surgery together with clamping of the renal pedicle was carried out.
# Renal injury, as described below, was carried out 24 hours after the mice were exposed to xenon. […]
# Kidneys were removed from mice immediately after they were killed, cut in half, fixed in neutral-buffered formalin, and embedded in paraffin. Sections (5 μm thick) of formalin-fixed, paraffin-embedded tissue were mounted on glass slides and stained with haematoxylin-eosin for general histology and quantitative analysis. All tissues were evaluated without investigator knowledge of the group from which it originated.
# For quantification of morphologic data, more than 10 low-magnification fields (×200) including both cortex and outer medulla were randomly selected. […] The total score for each kidney was calculated by addition of all 10 scores (maximum score 30). The histology score was assessed in a blinded manner in each group. […] mice were assessed for the control and XPD groups and four mice were assessed for each of the naïve and sham groups.
# Mean±SEM are presented. The significant difference in mean values was evaluated by either a t test or by Dunnett paired t test for multiple comparisons. […]
# [4] = XePC24 group compared to P20 group (no preconditioning)
compound,measurement,setting,value
[Xe] [xenon],concentrations exhibiting anaesthetic effects,[1],10-70 vol. %
same,HIF-1α expression in the kidneys,[2],time-dependent increase
same,morphologic injury in the kidney,"[3]; 75% xenon 2 h, 24 h before 20 min ischaemia and 24 h reperfusion, histology score",decreased
same,amount of creatinine in blood plasma,[3]; [4],significantly decreases
same,amount of urea nitrogen in blood plasma,[3]; [4],significantly decreases
